Assay results from US10435388B2, “Selective inhibitors of clinically important mutants of the EGFR tyrosine kinase” (CS PHARMATECH LIMITED, priority 2016, dated 2019).
Where two headings read alike, the source gives them in different places.

What was measured:
[1] = system: PC9 cells (SM); assay: PC-9 growth inhibition assay (cell proliferation), Method B; assay type: cell-based, human; conditions: cellular proliferation, several runs
[2] = system: p-EGFR in A431 cells (wild type EGFR, EGF stimulated); assay: Wild type EGFR A431 autophosphorylation inhibition assay (ELISA); assay type: cell-based, human; conditions: 2 h treatment, EGF stimulation 10 min
Protocol: (§1) Cellular EGFR Autophosphorylation Assays.
Wild Type EGFR A431 Autophosphorylation Inhibition Assay (ELISA).
After 2 hour treatment with test compounds, add 4.5 μL of EGF (1 μg/mL) into each well and stimulate for 10 min. The rest of the procedure was processed in the same manner as described above for H1975 cells.

[3] = system: H1975 cells (DM); assay: H1975 inhibition assay (cell proliferation), Method B; assay type: cell-based; conditions: cellular proliferation, several runs
[4] = system: p-EGFR in PC9 cells (Exon 19 deletion EGFR); assay: Exon19 deletion EGFR (activating single mutant) PC-9 cellular autophosphorylation assay; assay type: cell-based, human; conditions: 2 h treatment, ELISA
Protocol: as §1
The human lung cell line PC9 (Exon 19 deletion EGFR) is obtained from the American type Culture Collection. […] Cells are grown in a humidified incubator at 37° C. with 5% CO2, Assays to measure cellular phosphorylation of endogenous p-EGFR in cell Iysates are carried out according to the protocol described in the R&D Systems DuoSet IC Human Phospho-EGF R ELISA (R&D Systems catalogue number #DYCI095). 40 μL of cells are seeded (10000 cells/well) in growth medium in Corning black, clear-bottomed 384-well plates and incubated at 37° C., with 5%0/CO2 overnight. […] Plates are incubated for a further 2 h, then following aspiration of medium, 40 μL×lysis buffer is added to each well. Greiner black high bind 384 well plates are coated with capture antibody and then blocked with 3% BSA. Following removal of block, 15 μL of lysate are transferred to the Greiner black high bind 384 well plates and incubated for 2 hours. Following aspiration and washing of the plates with PBS, 20 μL of detection antibody are added and incubated for 2 hours. […] The data obtained with each compound are exported into a suitable software package (such as Origin) to perform curve fitting analysis.

[5] = system: A431 cells (WT); assay: A431 inhibition assay (cell proliferation), Method B; assay type: cell-based, human; conditions: cellular proliferation, several runs
Protocol: Cell Proliferation Assays—Method B
A431 Inhibition Assay, (Cell Proliferation).
The rest procedure was conducted in the same manner as described above for H1975 cells.

[6] = system: p-EGFR in H1975 cells (L858R/T790M double mutant EGFR)
[7] = biological target: EGFR_d746-750 (Homo sapiens, UniProt P00533, DEL746-750); assay: Enzyme assay, IC50 for single mutant EGFR_d746-750 (Caliper); assay type: biochemical; conditions: enzyme phosphorylation assay
Protocol: (§2) Using the same technique as described in the previous paragraph, various mutated forms of the epidermal growth factor receptor may be isolated from appropriate cell lines which contain them. For example, the EGFR de1746-750 mutant protein may be extracted from PC-9 cells, and the L858R/T790M double mutant EGFR protein may be isolated from H1975 cells.
Determination of IC50 Values for Single Mutant EGFR_d746-750
Dilute all compounds to 500 μM stock solutions in 100% DMSO and make a serial of 4-fold dilution for 10 doses. “Max” and “Min” control contain 100% DMSO. “Max” stands for […], “Min” stands for low control without compounds. Transfer 10 μl of compounds to 90 μl of 1× kinase base buffer to make intermediate dilution. […] Incubate at RT for 1 hr and 25 μl stop buffer to end up reaction. Collect conversion data from Caliper and conversion data from Caliper program. Fit the data in XLfit to obtain IC50 values.

[8] = system: LoVo cells (unmutated EGFR wild type); assay: LoVo growth inhibition assay (cell proliferation), Method A; assay type: cell-based; conditions: Homo sapiens, cellular proliferation, 72 h, CellTiter-Glo (Table 1), read-out: LoVo IC50 (nM) WT
Protocol: (§3) Cell Proliferation Assays—Method A
LoVo Growth Inhibition Assay (Cell Proliferation)
The rest of the procedure was carried out in the same manner as described for the H1975 cells.

[9] = system: PC9 cells (EGFR d746-750 single mutant); assay: PC-9 growth inhibition assay (cell proliferation), Method A; assay type: cell-based, human; conditions: Homo sapiens, PC-9; cellular proliferation, PC9 cells, 72 h, CellTiter-Glo (Table 1); read-out: PC9 IC50 (nM) SM
Protocol: as §3
(§4) The final concentration was 4,000 cells/well. Add medium only as low control.
(§5) Day-2: Test compounds were dissolved in DMSO at 0.2 mM (200×).
(§6) Day-5: After 72 hours incubation, remove the plates from incubator and equilibrate at room temperature for 15 minutes. Incubate the CellTiter Glo reagents (Promega, G9243) at 37° C. before the experiment. The buffer was equilibrated to room temperature and used to dissolve the substrate. To determine the cell viability, add 30 μL of CellTiter-Glo reagent into each well to be detected. Then shake the plates at room temperature for 10 min and followed by plate read on Envision (PerkinElmer).
(§7) For estimation of IC50, the luminescence readout are transformed to % Inhibition by applying the following equation: The IC50 was then
(§8) [formula] calculated by fitting in XLFit to a four parameters logistic curve.
PC-9 Growth Inhibition Assay (Cell Proliferation)
The inhibition assay for PC-9 cells was processed in the same manner as described for the H1975 cells.

[10] = biological target: T1, Wt EGFR (Homo sapiens, UniProt P00533); assay: Enzyme assay, IC50 for wt EGFR (Caliper); assay type: biochemical; conditions: enzyme phosphorylation assay; read-out: EGFR_WT IC50
T1 construct: isolated from A431 human epidermoid carcinoma cells which overexpress EGF receptor; endogenous in cells; host or cells: A431 human epidermoid carcinoma cells (receptor purified on wheat germ agglutinin sepharose)
Protocol: Purification of Epidermal Growth Factor Receptor Tyrosine Kinase Human EGF receptor tyrosine kinase was isolated from A431 human epidermoid carcinoma cells which overexpress EGF receptor by the following methods. Cells were grown in roller bottles in 50% Delbuco's Modified Eagle and 50% HAM F-12 nutrient media (Gibco) containing 10% fetal calf serum. Approximately 10^9 cells were lysed in two volumes of buffer containing 20 mM 2-(4N-[2-hydroxyethyl]piperazin-1-yl)ethanesulfonic acid (hepes), pH 7.4, 5 mM ethylene glycol bis(2-aminoethyl ether) N,N,N′,N′-tetraacetic acid, 1% Triton X-1OO, 10% glycerol. 0.1 mM sodium orthovanadate, 5 mM sodium fluoride, 4 mM pyrophosphate, 4 mM benzamide, 1 mM dithiothreitol, 80 μg/mL aprotinin, 40 μg/mL leupeptin and 1 mM phenylmethylsulfonyl fluoride. After centrifugation at 25,000×g for 10 minutes, the supernatant was equilibrated for 2 h at […], with 10 mL of wheat germ agglutinin sepharose that was previously equilibrated with 50 mM Hepes, 10% glycerol, 0.1% Triton X-100 and 150 mM NaCl, pH 7.5, (equilibration buffer). Contaminating proteins were washed from the resin with 1M NaCl in equilibration buffer, and the enzyme was eluted with 0.5M N-acetyl-1-D-glucosamine in equilibration buffer, followed by 1 mM urea. The enzyme was eluted with 0.1 mg/ml EGF.
Determination of IC50 Values for Wt EGFR
Dilute all compounds to 500 μM stock solutions in 100% DMSO and make a serial of 4-fold dilution for 10 does. “Max” and “Min” control contain 100% DMSO. “Max” stands for […], “Min” stands for low control without compounds. Transfer 10 μl of compounds to 90 μl of Ix kinase base buffer to make intermediate dilution. Transfer 5 μl of intermediate dilution compounds to the 384-well assay plate, then 10 μl 2.5× enzyme buffer containing (20 nM EGFR, 5 mM DTT, 1× kinase base buffer) were added to assay plate. […] Incubate at RT for 1 hr and 25 μl stop buffer to end up reaction. Collect conversion data from Caliper and conversion data from Caliper program. Fit the data in XLfit to obtain IC50 values.

[11] = system: NCI-H1975 cells (EGFR L858R/T790 double mutant); assay: H1975 inhibition assay (cell proliferation), Method A; assay type: cell-based; conditions: Homo sapiens; cellular proliferation, NCI-H1975 cells, 72 h, CellTiter-Glo (Table 1); read-out: NCI-H1975 IC50 (nM) DM
Protocol: as §3
H1975 Inhibition Assay (Cell Proliferation)
as §4, §5, §6, §7, §8

[12] = biological target: EGFR_T790M/L858R (Homo sapiens, UniProt P00533, L858R/T790M); assay: Enzyme assay, IC50 for double-mutant EGFR (EGFR_T790M/L858R) (Caliper); assay type: biochemical; conditions: enzyme phosphorylation assay; read-out: EGFR_L858R/T790 IC50
Protocol: as §2
Determination of IC50 Values for Double-Mutant EGFR (EGFR_T790M/L858R)
Dilute all compounds to 500 μM stock solutions in 100% DMSO and make a serial of 4-fold dilution for 10 does. “Max” and “Min” control contain 100% DMSO. “Max” stands for […], “Min” stands for low control without compounds. Transfer 10 μl of compounds to 90 μl of 1× kinase base buffer to make intermediate dilution. […] Incubate at RT for 1 hr and 25 μl stop buffer to end up reaction. Collect conversion data from Caliper and conversion data from Caliper program. Fit the data in XLfit to obtain IC50 values.

[13] = Homo sapiens, A-431, cellular EGFR autophosphorylation
[14] = Homo sapiens, NCI-H1975, 2 h, read-out: H1975 IC50 (nM), cellular EGFR autophosphorylation, 2 h treatment, ELISA

T1 sequence (P00533 25-1210): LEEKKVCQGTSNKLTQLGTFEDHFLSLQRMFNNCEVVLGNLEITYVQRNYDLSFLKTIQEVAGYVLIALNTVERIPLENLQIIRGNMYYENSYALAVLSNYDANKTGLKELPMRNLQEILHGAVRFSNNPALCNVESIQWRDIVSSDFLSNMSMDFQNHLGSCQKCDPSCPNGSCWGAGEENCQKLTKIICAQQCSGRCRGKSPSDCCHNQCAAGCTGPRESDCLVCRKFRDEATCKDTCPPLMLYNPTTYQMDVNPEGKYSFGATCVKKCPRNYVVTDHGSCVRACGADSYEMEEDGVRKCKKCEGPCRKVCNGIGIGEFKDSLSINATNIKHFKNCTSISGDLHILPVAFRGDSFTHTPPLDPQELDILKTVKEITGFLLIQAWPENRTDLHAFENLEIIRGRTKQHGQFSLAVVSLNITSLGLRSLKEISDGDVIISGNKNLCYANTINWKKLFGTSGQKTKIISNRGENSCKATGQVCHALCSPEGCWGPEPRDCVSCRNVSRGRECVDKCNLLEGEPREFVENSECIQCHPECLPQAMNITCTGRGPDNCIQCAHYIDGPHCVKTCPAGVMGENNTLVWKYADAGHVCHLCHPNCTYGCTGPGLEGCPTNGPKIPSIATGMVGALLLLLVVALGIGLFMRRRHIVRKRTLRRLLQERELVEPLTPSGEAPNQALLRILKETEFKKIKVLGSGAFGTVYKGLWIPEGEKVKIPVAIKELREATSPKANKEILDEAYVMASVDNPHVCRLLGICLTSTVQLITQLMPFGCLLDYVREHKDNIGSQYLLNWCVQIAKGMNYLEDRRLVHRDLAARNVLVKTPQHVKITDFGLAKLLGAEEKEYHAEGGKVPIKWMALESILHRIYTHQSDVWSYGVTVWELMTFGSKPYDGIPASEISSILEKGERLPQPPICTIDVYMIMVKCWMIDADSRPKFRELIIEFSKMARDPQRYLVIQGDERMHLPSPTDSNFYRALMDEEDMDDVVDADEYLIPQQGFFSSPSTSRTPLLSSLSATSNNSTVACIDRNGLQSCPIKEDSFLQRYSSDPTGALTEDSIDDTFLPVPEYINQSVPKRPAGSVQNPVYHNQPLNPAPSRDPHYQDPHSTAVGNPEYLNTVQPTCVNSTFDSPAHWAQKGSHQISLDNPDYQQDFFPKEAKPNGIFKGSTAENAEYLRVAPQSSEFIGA
Chain of EGFR_d746-750 (P00533 with tags, fused parts or gaps DEL746-750): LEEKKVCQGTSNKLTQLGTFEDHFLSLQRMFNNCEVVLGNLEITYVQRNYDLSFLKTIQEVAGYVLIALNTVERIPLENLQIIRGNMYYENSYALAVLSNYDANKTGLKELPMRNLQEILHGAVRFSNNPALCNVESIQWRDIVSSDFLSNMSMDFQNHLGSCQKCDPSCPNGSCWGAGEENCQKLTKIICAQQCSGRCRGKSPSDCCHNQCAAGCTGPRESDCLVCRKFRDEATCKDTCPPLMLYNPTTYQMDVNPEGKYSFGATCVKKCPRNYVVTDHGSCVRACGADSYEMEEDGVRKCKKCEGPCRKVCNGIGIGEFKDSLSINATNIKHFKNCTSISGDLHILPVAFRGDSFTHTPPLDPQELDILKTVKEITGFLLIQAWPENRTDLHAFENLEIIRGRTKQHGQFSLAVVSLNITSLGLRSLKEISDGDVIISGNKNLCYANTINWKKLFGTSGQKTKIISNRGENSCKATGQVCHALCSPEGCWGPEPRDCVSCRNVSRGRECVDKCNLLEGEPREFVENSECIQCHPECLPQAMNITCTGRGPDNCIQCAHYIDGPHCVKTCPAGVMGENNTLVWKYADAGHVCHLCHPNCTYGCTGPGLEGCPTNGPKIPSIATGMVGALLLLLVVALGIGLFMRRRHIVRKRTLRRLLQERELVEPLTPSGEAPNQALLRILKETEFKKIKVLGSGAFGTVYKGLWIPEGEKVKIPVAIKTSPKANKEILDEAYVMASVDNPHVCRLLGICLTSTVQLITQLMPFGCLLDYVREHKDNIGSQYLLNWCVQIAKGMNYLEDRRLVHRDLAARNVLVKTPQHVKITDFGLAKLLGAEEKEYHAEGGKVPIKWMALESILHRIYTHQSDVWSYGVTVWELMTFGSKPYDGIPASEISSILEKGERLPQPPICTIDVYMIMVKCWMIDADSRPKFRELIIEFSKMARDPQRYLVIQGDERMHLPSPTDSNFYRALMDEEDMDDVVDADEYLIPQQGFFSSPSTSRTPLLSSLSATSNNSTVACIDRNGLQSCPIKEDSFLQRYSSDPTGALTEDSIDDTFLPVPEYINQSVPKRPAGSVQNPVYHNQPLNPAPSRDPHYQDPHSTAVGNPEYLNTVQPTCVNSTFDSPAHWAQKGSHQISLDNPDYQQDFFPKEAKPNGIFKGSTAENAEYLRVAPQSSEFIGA
Chain of EGFR_T790M/L858R (P00533 25-1210 T790M/L858R): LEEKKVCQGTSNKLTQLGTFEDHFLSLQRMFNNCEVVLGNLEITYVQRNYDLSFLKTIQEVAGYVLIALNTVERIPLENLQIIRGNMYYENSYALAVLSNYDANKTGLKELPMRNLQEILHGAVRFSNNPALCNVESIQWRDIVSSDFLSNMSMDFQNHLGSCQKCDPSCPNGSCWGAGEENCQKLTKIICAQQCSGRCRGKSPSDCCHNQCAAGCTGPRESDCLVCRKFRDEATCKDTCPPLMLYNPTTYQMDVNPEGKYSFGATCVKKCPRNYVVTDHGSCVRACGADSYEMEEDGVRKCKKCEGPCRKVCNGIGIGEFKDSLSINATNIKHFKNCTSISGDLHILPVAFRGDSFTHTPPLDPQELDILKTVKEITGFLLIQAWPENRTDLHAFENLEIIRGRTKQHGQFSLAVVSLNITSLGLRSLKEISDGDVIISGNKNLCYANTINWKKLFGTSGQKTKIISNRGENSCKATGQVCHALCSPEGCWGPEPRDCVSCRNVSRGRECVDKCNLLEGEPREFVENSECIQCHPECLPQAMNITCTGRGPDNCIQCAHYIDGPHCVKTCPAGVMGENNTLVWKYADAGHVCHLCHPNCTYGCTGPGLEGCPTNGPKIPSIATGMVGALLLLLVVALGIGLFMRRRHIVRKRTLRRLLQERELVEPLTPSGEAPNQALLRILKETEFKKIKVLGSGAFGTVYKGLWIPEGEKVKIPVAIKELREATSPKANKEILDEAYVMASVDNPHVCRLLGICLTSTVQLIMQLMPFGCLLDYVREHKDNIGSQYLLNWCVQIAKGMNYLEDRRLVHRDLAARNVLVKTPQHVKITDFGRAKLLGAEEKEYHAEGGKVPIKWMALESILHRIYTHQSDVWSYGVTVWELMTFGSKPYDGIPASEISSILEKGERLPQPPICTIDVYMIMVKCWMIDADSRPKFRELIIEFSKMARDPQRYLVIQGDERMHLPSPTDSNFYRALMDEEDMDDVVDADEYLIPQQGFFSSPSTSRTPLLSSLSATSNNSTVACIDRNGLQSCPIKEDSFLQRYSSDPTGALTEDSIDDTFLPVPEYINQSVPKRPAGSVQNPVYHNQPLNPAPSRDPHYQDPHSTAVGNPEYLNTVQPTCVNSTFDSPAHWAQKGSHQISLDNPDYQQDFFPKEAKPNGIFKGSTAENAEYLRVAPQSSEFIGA

Structure (SMILES) | IC50 [7] | IC50 [8] | IC50 [9] | IC50 [10] | IC50 [11] | IC50 [12] | also measured
C=CC(=O)N1CC[C@@H](Oc2nc(Nc3ccc(N4CCC(N5CCN(C)CC5)CC4)cc3)c(C(N)=O)nc2CC)C1 [ASP8273] |  |  |  |  |  |  | IC50 ([1]; Homo sapiens, PC-9, 72 h): 15.9 nM; IC50 [2, 13]: 218 nM; IC50 ([3]; Homo sapiens, NCI-H1975, 72 h): 12.1 nM; IC50 ([4]; Homo sapiens, PC-9, 2 h): 37.3 nM; IC50 ([5]; Homo sapiens, A-431, 72 h): 675 nM; IC50 [6, 14]: 7.8 nM
Cc1cc(C(=O)Nc2nc3cccc(Cl)c3n2[C@@H]2CCCCN(C(=O)/C=C/CN(C)C)C2)ccn1 [EGF 816] |  |  |  |  |  |  | IC50 ([1]; 72 h): 67.3 nM; IC50 ([2]; cellular EGFR autophosphorylation): 276 nM; IC50 ([3]; 72 h): 77.9 nM; IC50 [4]: 25.4 nM; IC50 ([5]; 72 h): 2850 nM; IC50 ([6]; read-out: H1975 IC50, cellular EGFR autophosphorylation, 2 h treatment, ELISA): 43.7 nM
C=CC(=O)Nc1cc(Nc2nccc(-c3c[nH]c4c(C#N)cccc34)n2)c(OC)cc1N(C)CCN(C)C [Example 12, N-(2-(N-(2-(N,N-Dimethylamino)ethyl)-N-methylamino)-4-methoxy-5-(4-(7-cyanoindol-3-yl)pyrimidin-2-ylamino)phenyl) propenamide] | 1.1 nM | 2560 nM | 5.2 nM | 1.5 nM | 3.5 nM | 1.2 nM | 
C=CC(=O)Nc1cc(Nc2nccc(-c3c(C)[nH]c4ccccc34)n2)c(OC)cc1N(C)CCN(C)C [Example 14, N-(2-(N-(2-(N,N-Dimethylamino)ethyl)-N-methylamino)-4-methoxy-5-(4-(2-methylindol-3-yl)pyrimidin-2-ylamino)phenyl) propenamide] | 1 nM | 2980 nM | 6.1 nM | 5 nM | 3.7 nM | 1.8 nM | 
C=CC(=O)Nc1cc(Nc2nccc(-c3n[nH]c4ccccc34)n2)c(OC)cc1N(C)CCN(C)C [Example 15, N-(2-(N-(2-(N,N-Dimethylamino)ethyl)-N-methylamino)-4-methoxy-5-(4-(indazol-3-yl)pyrimidin-2-ylamino)phenyl) propenamide] | 1.1 nM | 13500 nM | 3.3 nM | 1.9 nM | 2.9 nM | 1.5 nM | 
C=CC(=O)Nc1cc(Nc2nccc(-n3nc(NC(C)C)c4ccccc43)n2)c(OC)cc1N(C)CCN(C)C [Example 43] |  |  |  |  |  |  | IC50 ([1]; Homo sapiens, PC-9, 72 h): 3.3 nM; IC50 [2, 13]: 73.4 nM; IC50 ([3]; Homo sapiens, NCI-H1975, 72 h): 3.96 nM; IC50 ([4]; Homo sapiens, PC-9, 2 h): 10.3 nM; IC50 ([5]; Homo sapiens, A-431, 72 h): 218 nM; IC50 [6, 14]: 10.2 nM

Now from value to compound, other results behind:

IC50 [7] | IC50 [8] | IC50 [9] | IC50 [10] | IC50 [11] | IC50 [12] | Structure (SMILES) | also measured
0.91 nM | 12000 nM | 2.2 nM | 1.3 nM | 1.5 nM | 1.2 nM | C=CC(=O)Nc1cc(Nc2nccc(-n3c(=O)[nH]c4ccccc43)n2)c(OC)cc1N(C)CCN(C)C [Example 10, N-(2-(N-(2-(N,N-Dimethylamino)ethyl)-N-methylamino)-4-methoxy-5-(4-(2-oxo-2,3-dihydrobenzimidazol-1-yl)pyrimidin-2-ylamino)phenyl) propenamide] | 
1 nM | 4730 nM | 2.9 nM | 1.5 nM | 2.3 nM | 1.3 nM | C=CC(=O)Nc1cc(Nc2nccc(-c3c[nH]c4c(C)cccc34)n2)c(OC)cc1N(C)CCN(C)C [Example 11, N-(2-(N-(2-(N,N-Dimethylamino)ethyl)-N-methylamino)-4-methoxy-5-(4-(7-methylindol-3-yl)pyrimidin-2-ylamino)phenyl) propenamide] | 
1.7 nM | 5810 nM | 9.9 nM | 6.7 nM | 5.6 nM | 1.5 nM | C=CC(=O)Nc1cc(Nc2nccc(N3CCc4ccccc43)n2)c(OC)cc1N(C)CCN(C)C [Example 13, N-(2-(N-(2-(N,N-Dimethylamino)ethyl)-N-methylamino)-4-methoxy-5-(4-(2,3-dihydroindol-1-yl)pyrimidin-2-ylamino)phenyl) propenamide] | 
